Results: patent US5770611A, “Indole derivatives as 5HT1 -like agonists” (Pfizer Inc., priority 1994, dated 1998)

Legend:
[1] = biological target: T1, "5-HT1 -like" receptor (dog isolated saphenous vein strip) (Canis lupus familiaris, UniProt P79250); assay: contraction of isolated dog saphenous vein strip ("5-HT1 -like" receptor agonist activity); assay type: cell-based; settings: for EC50: concentration causing 50% of the maximum contraction effected by the compound; for RELATIVE POTENCY EC50 (compound)/EC50 (5-HT): ratio to 5-HT (higher = less potent)
T1 construct: on dog isolated saphenous vein strip; from tissue; host or cells: dog isolated saphenous vein strip
T1 sequence (P79250 whole entry): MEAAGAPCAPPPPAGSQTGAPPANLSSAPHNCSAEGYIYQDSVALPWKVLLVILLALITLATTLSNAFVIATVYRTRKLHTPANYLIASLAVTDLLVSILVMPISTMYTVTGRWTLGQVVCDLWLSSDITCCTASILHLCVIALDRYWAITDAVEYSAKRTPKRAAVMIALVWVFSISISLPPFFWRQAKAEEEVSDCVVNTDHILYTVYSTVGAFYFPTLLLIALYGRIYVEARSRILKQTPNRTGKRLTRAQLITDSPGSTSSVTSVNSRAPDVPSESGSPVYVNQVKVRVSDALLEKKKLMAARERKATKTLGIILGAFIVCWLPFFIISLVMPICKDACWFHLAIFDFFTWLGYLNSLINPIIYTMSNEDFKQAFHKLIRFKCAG
Text: The following Table illustrates the in vitro activities for a range of the compounds of the invention on dog isolated saphenous vein strip. EC50 represents the concentration of compound which causes 50% of the maximum contraction effected by it.

[2] = biological target: T1, "5-HT1 -like" receptor (dog isolated saphenous vein strip); settings: antagonism of the agonist-induced contraction; cited from earlier work

| EC50 [1] [nM] | RELATIVE POTENCY EC50 (compound)/EC50 (5-HT) [1] | SMILES | block of contraction of dog saphenous vein strip [2] |
| --- | --- | --- | --- |
| 180 | 2.4 | CC(C)(O)CCc1ccc2[nH]cc(C[C@H]3CCCN3C[C@H]3CCCN3S(C)(=O)=O)c2c1 [Example 5, 5-(3-Hydroxy-3-methyl-1-butyl)-3-[N-(N-methane-sulphonyl-2(R)-pyrrolidinylmethyl)-2(R)-pyrrolidinylmethyl]-1H-indole] |  |
| 3000 | 71 | CC(C)(O)CCc1ccc2[nH]cc(C[C@H]3CCCN3CC3CCCNC3=O)c2c1 (single isomer, unassigned) [Example 9A] |  |
| 620 | 11.0 | CC(C)(O)CCc1ccc2[nH]cc(C[C@H]3CCCN3CC3CCN(Cc4ccccc4)C3)c2c1 (stereo partly drawn) [Example 1] |  |
| 1800 | 78 | CC(C)(O)CCc1ccc2[nH]cc(C[C@H]3CCCN3CC3CCCNC3=O)c2c1 (single isomer, unassigned) [Example 9B] |  |
|  |  | CSc1ccc2c(c1)C(N1CCN(C)CC1)Cc1ccccc1S2 (stereo not drawn) [methiothepin] | This effect can be blocked by methiothepin |
